Results as given in BindingDB's records for patent US11504368 (Thomas Helledays Stiftelse FÖr Medicinsk Forskning, 2022).

Biological target: T1, Bifunctional methylenetetrahydrofolate dehydrogenase/cyclohydrolase, mitochondrial (Homo sapiens, UniProt P13995)
T1 sequence (P13995 whole entry): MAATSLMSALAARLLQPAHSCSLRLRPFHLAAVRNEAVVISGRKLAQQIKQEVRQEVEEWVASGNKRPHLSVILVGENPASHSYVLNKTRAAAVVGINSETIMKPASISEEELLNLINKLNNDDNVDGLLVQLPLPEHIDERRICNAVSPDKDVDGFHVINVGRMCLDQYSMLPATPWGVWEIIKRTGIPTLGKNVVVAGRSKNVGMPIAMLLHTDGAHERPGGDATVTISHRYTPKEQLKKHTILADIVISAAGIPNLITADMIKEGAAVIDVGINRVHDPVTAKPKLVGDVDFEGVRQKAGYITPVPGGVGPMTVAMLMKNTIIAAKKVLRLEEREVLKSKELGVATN
Experiment: Inhibition of MTHFD2
Description: DMSO was used as negative control. The serial dilution in DMSO, from compound DMSO stock solution, was created by dispensing from a 384-well low dead volume microplate (LP-0200, Labcyte) and a 384-well polypropylene microplate 2.0 (PP-0200, Labcyte). A total of 2.5 μL MTHFD2 was preincubated with compound or DMSO for 10 min. The enzymatic reaction was initiated by adding 2.5 μL folitixorin (F680350, Toronto Research Chemicals). For background control, 5 μL buffer was added to the well. […] The final concentrations of all reagents in a total assay volume of 5 μL per well were 50 mmol/L Tris-HCl at pH 8.0, 100 mmol/L NaCl, 5 mmol/L MgCl2, 25 mmol/L Na3PO4 at pH 8.0, 0.005% (v/v) Tween-20, and 2 mmol/L 2-mercaptoethanol. After 15 min reaction time, 5 μL NAD(P)H-Glo detection reagent (G9061 or G9062, Promega) was dispensed in all wells and the plate was incubated for 60 min. Luminescence was measured on a plate reader (Envision, PerkinElmer or Sense, Hidex). The light signal produced is proportional to the amount of NAD(P)H in the sample.

IC50: 36 nM
SMILES: Nc1nc(N)c(NC(=O)Nc2ccc(C(=O)N[C@@H](CCc3ccccc3)C(=O)O)nc2)c(=O)[nH]1 [US11504368, Example 14]
